Experimental data reported in PMC6312236, “Functional characterization reveals that zebrafish CFTR prefers to occupy closed channel conformations” (PLoS ONE, 2018).

Columns and labels:
Assay in all cases: inside-out patch clamp, macroscopic current
Format in all cases: biochemical
[1] = target: T1, WT-zCFTR (codon optimized zebrafish CFTR) (Danio rerio, UniProt Q1LX78); conditions: 50 μM P-ATP relative to 2 mM ATP, PKA-phosphorylated channel, pH 7.4
T1 construct: full-length wild type, codon-optimized cDNA (from J. Chen), co-transfected with peGFP-C3 in CHO cells; PKA-phosphorylated in patches
T1 sequence (Q1LX78 1-1485): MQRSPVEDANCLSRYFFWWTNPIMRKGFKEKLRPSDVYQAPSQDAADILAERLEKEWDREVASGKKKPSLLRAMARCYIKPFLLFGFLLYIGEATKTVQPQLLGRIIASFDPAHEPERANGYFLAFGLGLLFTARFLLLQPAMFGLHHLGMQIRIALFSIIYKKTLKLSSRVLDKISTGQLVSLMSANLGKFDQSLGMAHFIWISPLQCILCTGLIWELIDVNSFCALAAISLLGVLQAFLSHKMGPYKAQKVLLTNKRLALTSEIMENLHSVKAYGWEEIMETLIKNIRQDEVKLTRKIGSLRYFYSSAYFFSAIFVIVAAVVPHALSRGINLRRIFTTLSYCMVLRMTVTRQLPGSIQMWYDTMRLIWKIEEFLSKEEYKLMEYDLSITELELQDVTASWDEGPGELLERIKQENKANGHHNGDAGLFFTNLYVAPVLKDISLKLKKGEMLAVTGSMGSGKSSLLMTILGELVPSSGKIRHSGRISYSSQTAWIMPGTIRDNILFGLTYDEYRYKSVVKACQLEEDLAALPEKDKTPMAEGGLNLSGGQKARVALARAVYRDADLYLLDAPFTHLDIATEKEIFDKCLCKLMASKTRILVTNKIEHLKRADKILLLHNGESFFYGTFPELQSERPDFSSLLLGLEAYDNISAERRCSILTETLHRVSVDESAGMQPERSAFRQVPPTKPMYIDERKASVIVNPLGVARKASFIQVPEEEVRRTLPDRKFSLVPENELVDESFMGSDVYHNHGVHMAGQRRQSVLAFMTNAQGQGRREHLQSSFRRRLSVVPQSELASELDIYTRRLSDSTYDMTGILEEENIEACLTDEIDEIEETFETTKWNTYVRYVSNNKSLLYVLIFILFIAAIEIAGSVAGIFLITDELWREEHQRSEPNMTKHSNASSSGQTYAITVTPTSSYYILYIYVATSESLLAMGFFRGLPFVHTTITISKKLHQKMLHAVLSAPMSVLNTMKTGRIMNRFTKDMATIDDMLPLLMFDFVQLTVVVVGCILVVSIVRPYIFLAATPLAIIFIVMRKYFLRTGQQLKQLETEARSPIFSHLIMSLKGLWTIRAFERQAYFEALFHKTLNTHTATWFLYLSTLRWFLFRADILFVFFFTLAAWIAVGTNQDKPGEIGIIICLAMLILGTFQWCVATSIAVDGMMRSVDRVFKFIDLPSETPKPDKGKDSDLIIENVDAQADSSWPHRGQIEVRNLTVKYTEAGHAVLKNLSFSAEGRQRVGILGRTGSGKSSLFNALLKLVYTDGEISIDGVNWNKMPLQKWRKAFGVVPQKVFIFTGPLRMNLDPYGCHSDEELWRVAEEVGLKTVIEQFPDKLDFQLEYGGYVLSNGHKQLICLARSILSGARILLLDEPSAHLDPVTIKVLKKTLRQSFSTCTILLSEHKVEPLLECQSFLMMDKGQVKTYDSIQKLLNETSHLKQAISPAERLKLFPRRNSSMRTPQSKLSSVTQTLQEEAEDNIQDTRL

[2] = target: T2, WT-nzCFTR (native form of zebrafish CFTR) (Danio rerio, UniProt Q1LX78); conditions: 10 μM inhibitor, PKA-phosphorylated channel, pH 7.4, 22-24 °C
T2 construct: full-length wild type, native (not codon-optimized) cDNA from M. Bagnat lab, co-transfected with peGFP-C3 in CHO cells; PKA-phosphorylated in patches
T2 sequence (Q1LX78 1-1485): T1 sequence (Q1LX78 1-1485)

[3] = target: T1, WT-zCFTR (codon optimized zebrafish CFTR); conditions: 10 μM inhibitor, PKA-phosphorylated channel, pH 7.4, 22-24 °C

IP-ATP/IATP [1]	inhibition ratio at 10 μM [2]	inhibition ratio at 10 μM [3]	SMILES
0.88 ± 0.04	–	–	O=P(O)(O)OP(=O)(O)OP(=O)(O)OC[C@H]1O[C@@H](n2cnc3c(NCCc4ccccc4)ncnc32)[C@H](O)[C@@H]1O [N6‐Phenylethyl‐ATP]
–	0.30 ± 0.04	0.27 ± 0.03	O=C(O)c1ccc(/C=C2\SC(=S)N(c3cccc(C(F)(F)F)c3)C2=O)cc1 [CFTRinh-172]
